Reference: publication PMC8125568 (2021)
One block for each molecule: values may come before it.

Assays:
[1] = test system: AU-RNA (poly A—poly U) (RNA, polymer) A/U; test: circular dichroism titration; conditions: Na+ (sodium cacodylate, I = 0.05 M); pH 7.0, room temperature; RNA 20 µM; CD spectrum somewhat changed
[2] = test system: AU-RNA (poly A—poly U) (RNA, polymer) A/U; test: UV thermal denaturation, 260 nm; conditions: Na+ (sodium cacodylate, I = 0.05 M), error ± 0.5, per base
[3] = test system: AT-DNA (poly dAdT—poly dAdT) (DNA, polymer) AT; test: fluorimetric titration, Scatchard; conditions: Na+ (sodium cacodylate, I = 0.05 M); pH 7.0, 25 °C, 0.04% DMSO; n fixed 0.2; polynucleotide as phosphates; per base
[4] = test system: AU-RNA (poly A—poly U) (RNA, polymer) A/U; test: fluorimetric titration, Scatchard; conditions: Na+ (sodium cacodylate, I = 0.05 M); pH 7.0, 25 °C, 0.04% DMSO; n fixed 0.2; polynucleotide as phosphates; per base

binding [1]: weak
SMILES: CC12SC(C(=O)NCCN)=CC1=C1CCCC1=C1C=C(C(=O)NCCN)SC12C (stereo not drawn)

∆Tm ([2]; pH 7.0, 4% DMSO, r = 0.3, no stabilisation): 0.3 °C
SMILES: CC12SC(C(=O)NCCNC(=O)c3ccc4ccc5cccc6ccc3c4c56)=CC1=C1CCCC1=C1C=C(C(=O)NCCNC(=O)c3ccc4ccc5cccc6ccc3c4c56)SC12C (stereo not drawn)

∆Tm ([2]; pH 7.0, r = 0.3): −0.7 °C
SMILES: Cc1sc(C(=O)NCCN)cc1C1=C(c2cc(C(=O)NCCN)sc2C)CCC1

∆Tm ([2]; pH 7.0, 0.5% DMSO, r = 0.3, RNA 20 µM, two transitions (first/second)): 0/23.4 °C | logKs [3]: 6.3 log M^-1 | logKs [4]: 6.1 log M^-1
SMILES: Cc1sc(C(=O)NCCNC(=O)c2ccc3ccc4cccc5ccc2c3c45)cc1C1=C(c2cc(C(=O)NCCNC(=O)c3ccc4ccc5cccc6ccc3c4c56)sc2C)CCC1
